Experimental data from paper PMC3982195 (The FEBS journal, 2014).

Assays:
[1] = target: T1, cytosolic nucleotidase II (LpcN-II) (Legionella pneumophila, UniProt Q5ZZB6); assay type: biochemical
[2] = target: T1, cytosolic nucleotidase II (LpcN-II); assay type: biochemical; remark: listed apart in the source
[3] = target: T1, cytosolic nucleotidase II (LpcN-II); assay type: biochemical; remark: listed apart in the source
[4] = target: T1, cytosolic nucleotidase II (LpcN-II); assay: biochemical; assay type: binding
[5] = test system: O=[N+]([O-])c1ccc(OP(=O)(O)O)cc1; assay: purified protein

T1 sequence (Q5ZZB6 1-459 limits assumed): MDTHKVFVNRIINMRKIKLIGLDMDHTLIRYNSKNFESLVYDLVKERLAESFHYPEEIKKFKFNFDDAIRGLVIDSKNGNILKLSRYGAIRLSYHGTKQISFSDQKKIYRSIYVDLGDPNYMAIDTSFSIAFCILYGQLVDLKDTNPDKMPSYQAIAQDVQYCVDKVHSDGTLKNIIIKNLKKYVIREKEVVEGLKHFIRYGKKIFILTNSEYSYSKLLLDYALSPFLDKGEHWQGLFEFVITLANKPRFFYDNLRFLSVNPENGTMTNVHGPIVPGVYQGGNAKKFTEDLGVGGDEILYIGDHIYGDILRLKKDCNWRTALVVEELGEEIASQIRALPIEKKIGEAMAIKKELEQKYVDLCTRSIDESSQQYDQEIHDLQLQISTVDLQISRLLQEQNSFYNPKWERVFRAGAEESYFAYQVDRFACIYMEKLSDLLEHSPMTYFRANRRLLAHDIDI

Q: With Nc1nc2c(ncn2[C@H]2C[C@H](O)[C@@H](COP(=O)(O)OP(=O)(O)OP(=O)(O)O)O2)c(=O)[nH]1 [dGTP] as the compound, how does the “activation of pNPP hydrolysis by purified enzyme” value [1] read?
A: Its value is “GTP, dGTP, and GDP showed activation of LpcN-II activity”.

Q: With O=c1[nH]cnc2c1ncn2[C@@H]1O[C@H](COP(=O)(O)OP(=O)(O)OP(=O)(O)O)[C@@H](O)[C@H]1O [ITP] as the compound, how does the “competitive reduction of GTP activation of pNPP hydrolysis” value [2] read?
A: The value was “indicate that IMP and ITP bind to the GTP-binding site”.

Q: With Nc1nc2c(ncn2[C@@H]2O[C@H](COP(=O)(O)OP(=O)(O)O)[C@@H](O)[C@H]2O)c(=O)[nH]1 [GDP] as the compound, how does the “activation of pNPP hydrolysis; competition with GTP” value [3] read?
A: The value was “GDP was also found to compete for binding to the GTP binding site”.

Q: Nc1nc2c(ncn2[C@@H]2O[C@H](COP(=O)(O)OP(=O)(O)OP(=O)(O)O)[C@@H](O)[C@H]2O)c(=O)[nH]1 [GTP] was tested. Which Kd [4] did it give?
A: The Kd was 4.1 ± 0.7 mM.

Q: Which K0.5 [5] does the source give for “cytosolic nucleotidase II (LpcN-II) (Legionella pneumophila subsp. pneumophila str. Philadelphia 1)” here?
A: Its K0.5 is 5.1 ± 0.9 mM.

Q: What about the kcat/Km [5] of the same compound?
A: The kcat/Km was 0.1 M⁻¹ s⁻¹.
